Drawing on patent publication US20250270190A1, “KIT INHIBITORS” (BLUEPRINT MEDICINES CORPORATION, priority 2022, published 2025), this text covers IC50 for 24 compounds.

The target in the test is T1, c-kit autophosphorylation (Phospho c-Kit Tyr721) in HMC 1.1 (exon 11/13) cells, V654A (Homo sapiens, UniProt P10721, V560G/V654A).
T1 construct: endogenous in cells; host or cells: HMC 1.1 (exon 11/13) cells
T1 sequence (P10721 26-976 V560G/V654A): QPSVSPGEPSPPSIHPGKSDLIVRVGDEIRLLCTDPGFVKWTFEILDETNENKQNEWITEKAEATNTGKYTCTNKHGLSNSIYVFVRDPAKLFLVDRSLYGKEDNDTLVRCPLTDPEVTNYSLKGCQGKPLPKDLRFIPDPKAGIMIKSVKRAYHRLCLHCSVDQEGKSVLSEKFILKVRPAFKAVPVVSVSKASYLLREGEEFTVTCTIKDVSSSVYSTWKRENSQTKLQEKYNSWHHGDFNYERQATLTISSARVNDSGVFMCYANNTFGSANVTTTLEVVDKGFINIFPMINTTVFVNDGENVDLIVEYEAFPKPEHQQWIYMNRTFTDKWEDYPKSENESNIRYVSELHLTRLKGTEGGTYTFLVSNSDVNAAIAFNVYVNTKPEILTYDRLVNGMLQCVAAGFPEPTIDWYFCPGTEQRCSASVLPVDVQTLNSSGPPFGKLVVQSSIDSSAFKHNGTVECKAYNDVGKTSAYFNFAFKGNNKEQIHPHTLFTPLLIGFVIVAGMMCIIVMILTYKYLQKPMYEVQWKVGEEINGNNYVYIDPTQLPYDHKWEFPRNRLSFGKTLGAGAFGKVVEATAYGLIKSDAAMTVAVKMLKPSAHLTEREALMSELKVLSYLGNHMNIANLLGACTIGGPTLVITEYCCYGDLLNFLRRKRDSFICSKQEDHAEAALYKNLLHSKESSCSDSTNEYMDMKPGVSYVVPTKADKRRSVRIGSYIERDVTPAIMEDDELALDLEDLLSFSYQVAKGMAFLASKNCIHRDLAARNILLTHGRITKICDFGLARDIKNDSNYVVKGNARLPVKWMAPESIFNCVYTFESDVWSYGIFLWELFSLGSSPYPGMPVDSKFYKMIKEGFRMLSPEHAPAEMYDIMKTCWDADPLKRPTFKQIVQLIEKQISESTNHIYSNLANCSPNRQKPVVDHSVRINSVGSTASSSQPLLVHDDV
The test is described as follows: pKIT Meso Scale Discovery (MSD) assay, inhibition of autophosphorylation of KIT, HMC1.1_V654A. The class given is cell-based. The settings on record: Table 1, cell line not named for Table 1, b1056 names pKIT HMC1.1_V654A, read-out: Code (IC50 for inhibition of autophosphorylation of KIT, pKIT MSD assay). The gist of the method: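 HMC1.1 cells were serum-starved for 4 h in serum-free, iron-free, phenol red-free IMDM, then treated with compound in dose-response for 90 min at 37 °C. Staurosporine and DMSO served as controls. Lysates were analysed by MSD electrochemiluminescence immunoassay for phospho-c-Kit Tyr721, and % inhibition of autophosphorylation was derived.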
By IC50 is commonly meant the concentration that gives 50% inhibition. As for `CN1CCC(n2cc(-c3cnc(Nc4cc(N)nc(C(F)F)n4)cc3OC(F)F)cn2)C1` (stereo not drawn) [Compound 192, N4-(4-(difluoromethoxy)-5-(1-(1-methylpyrrolidin-3-yl)-1H-pyrazol-4-yl)pyridin-2-yl)-2-(difluoromethyl)pyrimidine-4,6-diamine], the IC50 was below 10 nM.

Take `CCNc1cc(Nc2cc(N)nc([C@@H](C)F)n2)ncc1C(=O)NC` [Compound 10, (R)-6-((6-amino-2-(1-fluoroethyl)pyrimidin-4-yl)amino)-4-(ethylamino)-N-methylnicotinamide]: the IC50 is above 40 nM.

As for `CN1CC(n2cc(-c3cnc(Nc4cc(N)nc(C(F)F)n4)cc3OC3COC3)cn2)C1` [Compound 183, 2-(difluoromethyl)-N4-(5-(1-(1-methylazetidin-3-yl)-1H-pyrazol-4-yl)-4-(oxetan-3-yloxy)pyridin-2-yl)pyrimidine-4,6-diamine], the IC50 is above 40 nM.

Regarding `COc1cc(Nc2cc(N)nc(C(F)F)n2)ncc1-c1cnn(CCN(C)C)c1` [Compound 115, 2-(difluoromethyl)-N4-(5-(1-(2-(dimethylamino)ethyl)-1H-pyrazol-4-yl)-4-methoxypyridin-2-yl)pyrimidine-4,6-diamine], the 50% inhibitory concentration (IC50) lay within 10 to 40 nM.

Regarding `CNC(=O)c1cnc(Nc2cc(N)nc(C(F)F)n2)cc1NC1CCOC1` (stereo not drawn) [Compound 64, 6-((6-amino-2-(difluoromethyl)pyrimidin-4-yl)amino)-N-methyl-4-((tetrahydrofuran-3-yl)amino)nicotinamide], the IC50 fell in the range of 10 to 40 nM.

Turning to `Cn1cc(-c2cnc(Nc3cc(N)nc(C(F)F)n3)cc2OCC2CC(O)C2)cn1` (stereo not drawn) [Compound 145, 3-(((2-((6-amino-2-(difluoromethyl)pyrimidin-4-yl)amino)-5-(1-methyl-1H-pyrazol-4-yl)pyridin-4-yl)oxy)methyl)cyclobutan-1-ol], the IC50 lay within 10 to 40 nM.

Take `COc1cc(Nc2cc(N)nc(C(F)F)n2)ncc1-c1cnn([C@@H]2CCOC2)c1` (single isomer, unassigned) [Compound 110, (R)-2-(difluoromethyl)-N4-(4-methoxy-5-(1-(tetrahydrofuran-3-yl)-1H-pyrazol-4-yl)pyridin-2-yl)pyrimidine-4,6-diamine or (S)-2-(difluoromethyl)-N4-(4-methoxy-5-(1-(tetrahydrofuran-3-yl)-1H-pyrazol-4-yl)pyridin-2-yl)pyrimidine-4,6-diamine]: the concentration for half-maximal inhibition (IC50) is below 10 nM.

Consider `Cn1cc(-c2cnc(Nc3cc(N)nc(C(F)F)n3)cc2OCC2COC2)cn1` [Compound 104, 2-(difluoromethyl)-N4-(5-(1-methyl-1H-pyrazol-4-yl)-4-(oxetan-3-ylmethoxy)pyridin-2-yl)pyrimidine-4,6-diamine], for which the half-maximal inhibitory concentration (IC50) was below 10 nM.

Regarding `Cn1cc(-c2cnc(Nc3cc(N)nc(C(F)F)n3)cc2OCC(F)(F)F)cn1` [Compound 132, 2-(difluoromethyl)-N4-(5-(1-methyl-1H-pyrazol-4-yl)-4-(2,2,2-trifluoroethoxy)pyridin-2-yl)pyrimidine-4,6-diamine], the IC50 was below 10 nM.

As to `CC(C)Nc1cc(Nc2cc(N)nc(C(F)F)n2)ncc1C(=O)NCc1ccccn1` [Compound 158, 6-((6-amino-2-(difluoromethyl)pyrimidin-4-yl)amino)-4-(isopropylamino)-N-(pyridin-2-ylmethyl)nicotinamide], the IC50 was below 10 nM.

As to `CNC(=O)c1cnc(Nc2cc(N)nc([C@H](C)F)n2)cc1NC(C)C` [Compound 21, (S)-6-((6-amino-2-(1-fluoroethyl)pyrimidin-4-yl)amino)-4-(isopropylamino)-N-methylnicotinamide], the IC50 is below 10 nM.

In the case of `CNC(=O)c1cnc(Nc2cc(N)nc(C(F)F)n2)cc1NCC1CCC1` [Compound 61, 6-((6-amino-2-(difluoromethyl)pyrimidin-4-yl)amino)-4-((cyclobutylmethyl)amino)-N-methylnicotinamide], the IC50 is 10 to 40 nM.

`CNc1cc(Nc2cc(N)nc(C(F)F)n2)ncc1C(N)=O` [Compound 2, 6-((6-amino-2-(difluoromethyl)pyrimidin-4-yl)amino)-4-(methylamino)nicotinamide]: the IC50 is above 40 nM.

Turning to `COc1cc(Nc2cc(N)nc(C(F)F)n2)ncc1-c1cnn(C[C@H]2CCN2C)c1` (single isomer, unassigned) [Compound 138, (R)-2-(difluoromethyl)-N4-(4-methoxy-5-(1-((1-methylazetidin-2-yl)methyl)-1H-pyrazol-4-yl)pyridin-2-yl)pyrimidine-4,6-diamine or (S)-2-(difluoromethyl)-N4-(4-methoxy-5-(1-((1-methylazetidin-2-yl)methyl)-1H-pyrazol-4-yl)pyridin-2-yl)pyrimidine-4,6-diamine], the IC50 is below 10 nM.

As for `COCCn1cc(-c2cnc(Nc3cc(N)nc(C(F)F)n3)cc2OC2CC2)cn1` [Compound 146, N4-(4-cyclopropoxy-5-(1-(2-methoxyethyl)-1H-pyrazol-4-yl)pyridin-2-yl)-2-(difluoromethyl)pyrimidine-4,6-diamine], the IC50 was below 10 nM.

`Nc1cc(Nc2cc(OC3CC3)c(-c3cnn([C@H]4CCOC4)c3)cn2)nc(C(F)F)n1` (single isomer, unassigned) [Compound 164, (S)—N4-(4-cyclopropoxy-5-(1-(tetrahydrofuran-3-yl)-1H-pyrazol-4-yl)pyridin-2-yl)-2-(difluoromethyl)pyrimidine-4,6-diamine or (R)—N4-(4-cyclopropoxy-5-(1-(tetrahydrofuran-3-yl)-1H-pyrazol-4-yl)pyridin-2-yl)-2-(difluoromethyl)pyrimidine-4,6-diamine]: the IC50 is below 10 nM.

As for `CC(C)Oc1cc(Nc2cc(N)nc([C@H](C)F)n2)ncc1-c1cnn(C2COC2)c1` [Compound 129, (S)-2-(1-fluoroethyl)-N4-(4-isopropoxy-5-(1-(oxetan-3-yl)-1H-pyrazol-4-yl)pyridin-2-yl)pyrimidine-4,6-diamine], the IC50 is below 10 nM.

Regarding `CC(C)Nc1cc(Nc2cc(N)nc(C(F)F)n2)ncc1C(=O)NCc1cocn1` [Compound 147, 6-((6-amino-2-(difluoromethyl)pyrimidin-4-yl)amino)-4-(isopropylamino)-N-(oxazol-4-ylmethyl)nicotinamide], the IC50 was below 10 nM.

Consider `Nc1cc(Nc2cc(OC(F)(F)F)c(-c3cnn(C4CC4)c3)cn2)nc(C(F)F)n1` [Compound 154, N4-(5-(1-cyclopropyl-1H-pyrazol-4-yl)-4-(trifluoromethoxy)pyridin-2-yl)-2-(difluoromethyl)pyrimidine-4,6-diamine], for which the IC50 is below 10 nM.

With `Cn1cc(-c2cnc(Nc3cc(N)nc(C(F)F)n3)cc2OC(F)(F)F)cn1` [Compound 95, 2-(difluoromethyl)-N4-(5-(1-methyl-1H-pyrazol-4-yl)-4-(trifluoromethoxy)pyridin-2-yl)pyrimidine-4,6-diamine], the IC50 was below 10 nM.

Turning to `CC(C)(N)Cn1cc(-c2cnc(Nc3cc(N)nc(C(F)F)n3)cc2OC2CC2)cn1` [Compound 169, N4-(5-(1-(2-amino-2-methylpropyl)-1H-pyrazol-4-yl)-4-cyclopropoxypyridin-2-yl)-2-(difluoromethyl)pyrimidine-4,6-diamine], the IC50 is below 10 nM.

`Cn1cc(-c2cnc(Nc3cc(N)nc(C(F)F)n3)cc2OC(F)F)cn1` [Compound 69, N4-(4-(difluoromethoxy)-5-(1-methyl-1H-pyrazol-4-yl)pyridin-2-yl)-2-(difluoromethyl)pyrimidine-4,6-diamine]: the IC50 is 10 to 40 nM.

Consider `CN1CC(n2cc(-c3cnc(Nc4cc(N)nc(C(F)F)n4)cc3OC[C@@H]3CCCO3)cn2)C1` [Compound 201, (S)-2-(difluoromethyl)-N4-(5-(1-(1-methylazetidin-3-yl)-1H-pyrazol-4-yl)-4-((tetrahydrofuran-2-yl)methoxy)pyridin-2-yl)pyrimidine-4,6-diamine], for which the half-maximal inhibitory concentration (IC50) was 10 to 40 nM.

In the case of `CNC(=O)c1cnc(Nc2cc(N)nc(CF)n2)cc1N[C@H](C)C(F)F` [Compound 47, (R)-6-((6-amino-2-(fluoromethyl)pyrimidin-4-yl)amino)-4-((1,1-difluoropropan-2-yl)amino)-N-methylnicotinamide], the IC50 was below 10 nM.
